Measurements from patent publication US9546144B2, “Bifunctional compounds” (University of Pittsburgh—of the Commonwealth System of …, priority 2011, dated 2017).

What was measured:
[1] = tested on: Brine shrimp; experiment: brine shrimp toxicity assay; type: in vivo; conditions: concentrations up to 20 mg/mL
Description: General procedure for brine shrimp toxicity assays. Sample preparation. Stock solutions of 3 were prepared by dissolving 3 (50.0 mg) in 5.0 HPLC grade water (5.0 mL), (solution A) and 3 (2.50 g) in HPLC grade water (10.0 mL) (solution B). Stock solutions of DMSO were prepared by diluting DMSO (45 μL) with HPLC grade water (5.0 mL) (solution C) and DMSO (2.27 mL) with HPLC grade water (10.0 mL) (solution D).
In each case, 5 replicates were performed. Each replicate was performed in a 2 dram vial marked at the 4 and 5 mL volume points. To each vial was added artificial sea water (3 mL) followed by the appropriate volume of stock solution. For set 1 (1.0 mg/mL), solution A (0.500 mL) or solution C (0.500 mL) was added. For set 2 (5.0 mg/mL), solution B (0.100 mL) or solution D (0.100 mL) was added to each vial. For set 3 (20.0 mg/mL), solution B (0.400 mL) or solution D (0.400 mL) was added to each vial. For set 4 (50.0 mg/mL), solution B (1.00 mL) or solution D (1.00 mL) was added to each vial. […]
Brine shrimp eggs (San Francisco Bay Brand) were hatched in a commercial salt mixture (Instant Ocean). […] The shrimp were counted at t=24 h. Another drop of freshly prepared yeast solution (6 mg in 10 mL sea water) was added, the vials were maintained under illumination, and shrimp were counted at t=48 h. […]

[2] = target: T1, PKD1 (Homo sapiens, UniProt Q15139); experiment: radiometric PKD1 inhibition assay, cosolvent interference; type: biochemical; conditions: stock solutions in 25% 3/NMP
T1 sequence (Q15139 1-912): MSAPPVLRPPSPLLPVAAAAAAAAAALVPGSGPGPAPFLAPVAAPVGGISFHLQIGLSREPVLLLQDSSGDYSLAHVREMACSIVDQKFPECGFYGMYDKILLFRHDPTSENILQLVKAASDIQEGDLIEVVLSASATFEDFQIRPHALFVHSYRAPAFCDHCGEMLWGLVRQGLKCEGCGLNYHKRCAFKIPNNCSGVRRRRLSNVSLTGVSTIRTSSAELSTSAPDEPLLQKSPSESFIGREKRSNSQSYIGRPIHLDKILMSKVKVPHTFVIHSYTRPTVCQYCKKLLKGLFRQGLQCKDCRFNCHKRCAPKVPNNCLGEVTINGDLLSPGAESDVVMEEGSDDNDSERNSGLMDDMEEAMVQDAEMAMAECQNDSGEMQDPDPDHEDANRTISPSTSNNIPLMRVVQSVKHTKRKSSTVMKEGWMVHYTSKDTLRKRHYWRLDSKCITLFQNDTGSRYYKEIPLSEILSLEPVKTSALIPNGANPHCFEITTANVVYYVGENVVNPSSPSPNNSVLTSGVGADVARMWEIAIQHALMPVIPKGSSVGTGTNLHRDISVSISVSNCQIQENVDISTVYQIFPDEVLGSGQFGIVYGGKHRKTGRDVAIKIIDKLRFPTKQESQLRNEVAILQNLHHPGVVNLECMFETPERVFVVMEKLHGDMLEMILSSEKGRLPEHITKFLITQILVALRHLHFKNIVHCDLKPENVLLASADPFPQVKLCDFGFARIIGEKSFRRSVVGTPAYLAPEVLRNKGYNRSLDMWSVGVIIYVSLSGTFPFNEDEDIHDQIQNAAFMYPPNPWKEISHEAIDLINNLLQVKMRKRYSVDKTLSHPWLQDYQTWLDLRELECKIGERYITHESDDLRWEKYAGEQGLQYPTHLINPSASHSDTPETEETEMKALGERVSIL
Description: FIG. 8. Plot of PKD1 activity with compound concentrations of 1 μM. […] The % PKD1 activity is reported as the mean, and error bars represent SEM (n=3). The % PKD1 activity was determined as previously described.
FIG. 9. Plot of PKD1 activity with compound concentrations of 10 μM. […] The % PKD1 activity is reported as the mean, and error bars represent SEM (n=3). The % PKD1 activity was determined as previously described.
Recently, a series of compounds with nanomolar to micromolar inhibitory activity against the serine/threonine protein kinase D (PKD) isoform PKD1 was disclosed (FIG. 7). Several lead structures, especially those containing a pyrimidine moiety, suffered from poor solubility not only in aqueous media but also in DMSO. To test the feasibility of using sulfoxide 3 as a cosolvent for in vitro assays, its use in the radiometric PKD1 inhibition assay was examined. Inhibitory activity at two concentrations (1 μM and 10 μM) was measured using compound stock solutions in three formulations: DMSO, NMP, and 25% 3/NMP (FIGS. 8 and 9).

[3] = tested on: bone marrow stromal cell line derived from C57BL/6NTac mice; experiment: in vitro clonogenic radiation survival curves; type: cell-based, mouse; conditions: 100 μM added 10 min after irradiation; control 1.9±0.1, p=0.0444
Description: FIG. 12. In vitro radioprotection and mitigation of bone marrow stromal cells. In vitro survival curves were performed using a bone marrow stromal cell line derived from C57BL/6NTac mice. Cells were incubated in 100 μM MMS350 for one hour before irradiation or was added to the cells 10 min after irradiation. Cells were irradiated to doses ranging from 0 to 8 Gy, plated in 4 well tissue culture plates, incubated for 7 days at 37° C. in a humidified CO2 incubator, and stained with crystal violet. Colonies of greater than 50 cells were counted and analyzed using a linear quadratic model or single-hit, multi-target model.
The murine C57BL/6 bone marrow stromal cell line (Epperly M W, Sikora C A, Defilippi S, Gretton J E, Greenberger J S. Bone marrow origin of myofibroblasts in irradiation pulmonary fibrosis. Am J Resp Molecular Cell Biology 2003; 29:213-224) and its use in clonogenic radiation survival curves has been described (Epperly M W, Gretton J E, Bernarding M, Nie S, Rasul B, Greenberger J S. Mitochondrial localization of copper/zinc superoxide dismutase (Cu/ZnSOD) confers radioprotective functions in vitro and in vivo. Radiation Research 2003; 160:568-578).
Cell lines were irradiated at dose rate of 70 cGy per minute using a Cesium Gamma Cell Irradiator according to published methods. […]

For CC1(C[S+]([O-])CC2(C)COC2)COC1 [compound 3, 3,3′-Sulfinylbis(methylene)bis(3-methyloxetane)], the “mortality after 48 h” value [1] was less than 10%, the “interference with the standard PKD1 inhibition assay” value [2] was “did not interfere” and the “D0 of the survival curve” value [3] was 2.4±0.3.
